Read-outs that look alike come from different tables or passages of the source.
How the values were obtained:
Type in all cases: cell-based
S. aureus Smith = assay: two-fold agar dilution MIC, Sa-2; conditions: Staphylococcus aureus
[1] = test system: Pseudomonas sp. A20621 KAT, NPT-1,2; assay: two-fold agar dilution MIC, Px-10
E. cloacae A21006 NPT-2 = assay: two-fold agar dilution MIC, E1-12
S. marcescens A20019 = assay: two-fold agar dilution MIC, Sm-1
S. aureus D133 SH, Sth-R = assay: two-fold agar dilution MIC, Sa-4
E. coli ML1630 NPT-1 = assay: two-fold agar dilution MIC, Ec-5; conditions: Escherichia coli
P. aeruginosa GN-4925 = assay: two-fold agar dilution MIC, Pa-45; conditions: Pseudomonas aeruginosa
E. coli NIHJ = assay: two-fold agar dilution MIC, Ec-1
P. vulgaris A9436 = assay: two-fold agar dilution MIC, Pv-1
[2] = test system: S. marcescens A21247 NPT-1, GAS; assay: two-fold agar dilution MIC, Sm-16; conditions: Serratia marcescens
K. pneumoniae D11 = assay: two-fold agar dilution MIC, Kp-1; conditions: Klebsiella pneumoniae
[3] = test system: S. aureus D137 PC, TC, EM-R; assay: two-fold agar dilution MIC, Sa-9
E. coli A20107 NPT-2 = assay: two-fold agar dilution MIC, Ec-49; conditions: Escherichia coli
E. coli JR35/C600 NPT-1 = assay: two-fold agar dilution MIC, Ec-10
P. aeruginosa GN-315 KAT = assay: two-fold agar dilution MIC, Pa-27
E. coli JR88 CAT-1 = assay: two-fold agar dilution MIC, Ec-62
E. coli NR79/W677 KAT = assay: two-fold agar dilution MIC, Ec-9; conditions: Escherichia coli, NR79/W677KAT
P. aeruginosa A9930 = assay: two-fold agar dilution MIC, Pa-3; conditions: Pseudomonas aeruginosa
S. aureus A20239 NPT-1,2 = assay: two-fold agar dilution MIC, Sa-10
[4] = test system: a variety of gram-positive and gram-negative bacteria; assay: antibacterial activity by two-fold agar dilution method, overall statement
[5] = test system: P. aeruginosa #130 GAT-1, NPT; assay: two-fold agar dilution MIC, Pa-16
B. subtilis PCT-219 = assay: two-fold agar dilution MIC, Bs-1; conditions: Bacillus subtilis
P. stuartii A20894 GAT-2 = assay: two-fold agar dilution MIC, Ps-2
E. coli A20732 GAS = assay: two-fold agar dilution MIC, Ec-72; conditions: Escherichia coli, A20732GAS
E. cloacae A20364 NPT-1 = assay: two-fold agar dilution MIC, E1-2; conditions: Enterobacter cloacae
E. coli P01495 CP.TC-R = assay: two-fold agar dilution MIC, Ec-2; conditions: Escherichia coli, P01495CP.TCR
[6] = test system: P. aeruginosa A20896 GAT-3; assay: two-fold agar dilution MIC, Pa-24
E. coli R5 KAT = assay: two-fold agar dilution MIC, Ec-55
[7] = test system: E. coli JR66/W677 NPT-2, GAS; assay: two-fold agar dilution MIC, Ec-53
P. mirabilis A9554 CL-R = assay: two-fold agar dilution MIC, Pm-1
[8] = test system: P. aeruginosa A20653 NPT-1,2; assay: two-fold agar dilution MIC, Pa-12; conditions: Pseudomonas aeruginosa
[9] = test system: P. aeruginosa A20601 GAT-1; assay: two-fold agar dilution MIC, Pa-21; conditions: Pseudomonas aeruginosa
[10] = test system: K. pneumoniae 22-3038 NPT-2, GAS; assay: two-fold agar dilution MIC, Kp-8
[11] = Pseudomonas, Run 1, read-out: MIC
[12] = Enterobacter cloacae, A21006NPT2
[13] = Serratia marcescens, A20019, Run 1, read-out: MIC
[14] = Staphylococcus aureus, Run 1, read-out: MIC
[15] = Escherichia coli, Run 1, read-out: MIC
[16] = Proteus vulgaris, A9436, Run 1, read-out: MIC
[17] = Escherichia coli, JR35/C600NPT1
[18] = Pseudomonas aeruginosa, Run 1, read-out: MIC
[19] = Pseudomonas aeruginosa, A20896GAT3, Run 1, read-out: MIC
[20] = Proteus mirabilis, A9554CLR, Run 1, read-out: MIC
[21] = Klebsiella pneumoniae, Run 1, read-out: MIC

CC1OC(OC2C(N)CC(N)C(OC3OC(CN)C(O)CC3N)C2O)C(O)C(N)C1O (centres unmarked) [compound 6, 6"-Deoxytobramycin]
> 100 µg/mL: MIC (P. aeruginosa GN-315 KAT; Pseudomonas aeruginosa, GN315, Run 2, read-out: MIC) | MIC (P. aeruginosa GN-315 KAT; Run 1) | MIC [6, 19] | MIC ([6]; Run 2)
100 µg/mL: MIC (P. aeruginosa GN-4925; GN4925, Run 1) | MIC (P. aeruginosa GN-4925; GN4925, Run 2) | MIC ([2]; Run 1)
excellent antibacterial activity: antibacterial activity [4]
< 0.05 µg/mL: MIC (B. subtilis PCT-219; PCT219, Run 1) | MIC (B. subtilis PCT-219; PCT219, Run 2)
6.3 µg/mL: MIC (S. marcescens A20019; Run 2) | MIC (S. marcescens A20019; [13]) | MIC [5, 18] | MIC ([5]; Run 2) | MIC ([8]; Run 1)
0.8 µg/mL: MIC (E. coli ML1630 NPT-1; ML1630NPT1, Run 2) | MIC (E. coli NIHJ; [15]) | MIC (E. coli NIHJ; Run 2) | MIC (E. coli A20107 NPT-2; A20107NPT2, Run 2) | MIC (E. coli JR35/C600 NPT-1; [17]) | MIC (E. coli JR35/C600 NPT-1; Run 2, Ec-10) | MIC (E. coli NR79/W677 KAT; Run 2) | MIC (S. aureus A20239 NPT-1,2; Run 2, Sa-10) | MIC (S. aureus A20239 NPT-1,2; Staphylococcus aureus) | MIC (E. coli P01495 CP.TC-R; Run 1) | MIC (E. coli P01495 CP.TC-R; Run 2) | MIC (P. mirabilis A9554 CL-R; [20]) | MIC (P. mirabilis A9554 CL-R; Run 2)
3.1 µg/mL: MIC ([3]; Run 2) | MIC [3, 14] | MIC (E. coli JR88 CAT-1; Escherichia coli, JR88CAT1) | MIC (E. coli JR88 CAT-1; Run 2, Ec-62) | MIC ([8]; Run 2) | MIC ([9]; A20601GAT1, Run 1) | MIC ([9]; A20601GAT1, Run 2)
0.1 µg/mL: MIC (S. aureus Smith; Run 2)
0.2 µg/mL: MIC (S. aureus Smith; Run 1) | MIC (P. vulgaris A9436; [16]) | MIC (P. vulgaris A9436; Run 2) | MIC (K. pneumoniae D11; D11, Run 1)
50 µg/mL: MIC [1, 11] | MIC ([1]; Run 2) | MIC ([2]; Run 2) | MIC (E. coli A20732 GAS; Run 1)
25 µg/mL: MIC (P. stuartii A20894 GAT-2; Providencia stuartii, A20894GAT2, Run 1, Ps-2, read-out: MIC) | MIC (P. stuartii A20894 GAT-2; Run 2, Ps-2) | MIC (E. coli A20732 GAS; Run 2) | MIC ([7]; Escherichia coli) | MIC ([7]; Run 2, Ec-53) | MIC [10, 21] | MIC ([10]; Run 2)
0.4 µg/mL: MIC (K. pneumoniae D11; D11, Run 2) | MIC (P. aeruginosa A9930; A9930, Run 1) | MIC (P. aeruginosa A9930; A9930, Run 2) | MIC (E. coli R5 KAT; Escherichia coli, R5KAT) | MIC (E. coli R5 KAT; Run 2, Ec-55)
1.6 µg/mL: MIC (E. cloacae A21006 NPT-2; [12]) | MIC (E. cloacae A21006 NPT-2; Run 2, E1-12) | MIC (S. aureus D133 SH, Sth-R; Run 2) | MIC (S. aureus D133 SH, Sth-R; [14]) | MIC (E. coli ML1630 NPT-1; ML1630NPT1, Run 1) | MIC (E. coli A20107 NPT-2; A20107NPT2, Run 1) | MIC (E. coli NR79/W677 KAT; Run 1) | MIC (E. cloacae A20364 NPT-1; A20364NPT1, Run 1) | MIC (E. cloacae A20364 NPT-1; A20364NPT1, Run 2)

NCC1OC(OC2C(N)CC(N)C(OC3OC(CO)C(O)C(N)C3O)C2O)C(N)CC1O (centres unmarked) [tobramycin, 3'-deoxykanamycin B]
< 0.05 µg/mL: MIC (B. subtilis PCT-219; PCT219, Run 2)
1.6 µg/mL: MIC (E. cloacae A21006 NPT-2; [12]) | MIC (E. cloacae A21006 NPT-2; Run 2, E1-12) | MIC (S. aureus D133 SH, Sth-R; Run 2) | MIC (S. aureus D133 SH, Sth-R; [14]) | MIC (E. coli ML1630 NPT-1; ML1630NPT1, Run 1) | MIC (E. coli A20107 NPT-2; A20107NPT2, Run 1) | MIC (E. coli A20107 NPT-2; A20107NPT2, Run 2) | MIC (E. coli JR35/C600 NPT-1; [17]) | MIC (E. coli JR35/C600 NPT-1; Run 2, Ec-10) | MIC (E. coli JR88 CAT-1; Escherichia coli, JR88CAT1) | MIC (E. coli JR88 CAT-1; Run 2, Ec-62) | MIC (E. coli NR79/W677 KAT; Run 1) | MIC (S. aureus A20239 NPT-1,2; Run 2, Sa-10) | MIC (E. coli A20732 GAS; Run 2) | MIC (E. cloacae A20364 NPT-1; A20364NPT1, Run 2) | MIC (E. coli P01495 CP.TC-R; Run 1) | MIC ([9]; A20601GAT1, Run 2)
0.2 µg/mL: MIC (S. aureus Smith; Run 2) | MIC (B. subtilis PCT-219; PCT219, Run 1)
50 µg/mL: MIC (P. aeruginosa GN-4925; GN4925, Run 2) | MIC ([2]; Run 1) | MIC ([2]; Run 2) | MIC (E. coli A20732 GAS; Run 1) | MIC (E. cloacae A20364 NPT-1; A20364NPT1, Run 1)
6.3 µg/mL: MIC (S. marcescens A20019; [13]) | MIC ([8]; Run 1)
25 µg/mL: MIC [1, 11] | MIC ([1]; Run 2) | MIC ([7]; Escherichia coli) | MIC ([7]; Run 2, Ec-53) | MIC [10, 21] | MIC ([10]; Run 2)
> 100 µg/mL: MIC (P. aeruginosa GN-315 KAT; Pseudomonas aeruginosa, GN315, Run 1, read-out: MIC) | MIC (P. aeruginosa GN-315 KAT; Run 2) | MIC [6, 19] | MIC ([6]; Run 2)
12.5 µg/mL: MIC (S. marcescens A20019; Serratia marcescens, A20019, Run 2) | MIC (P. stuartii A20894 GAT-2; Providencia stuartii, A20894GAT2) | MIC (P. stuartii A20894 GAT-2; Run 2, Ps-2)
0.4 µg/mL: MIC (S. aureus Smith; Run 1) | MIC (P. vulgaris A9436; [16]) | MIC (P. vulgaris A9436; Run 2) | MIC (K. pneumoniae D11; D11, Run 1) | MIC (P. aeruginosa A9930; A9930, Run 1)
3.1 µg/mL: MIC ([3]; Run 2) | MIC [3, 14] | MIC [5, 18] | MIC ([5]; Run 2) | MIC ([8]; Run 2) | MIC ([9]; A20601GAT1, Run 1)
0.8 µg/mL: MIC (E. coli ML1630 NPT-1; ML1630NPT1, Run 2) | MIC (E. coli NIHJ; [15]) | MIC (E. coli NIHJ; Run 2) | MIC (K. pneumoniae D11; D11, Run 2) | MIC (E. coli NR79/W677 KAT; Run 2) | MIC (P. aeruginosa A9930; A9930, Run 2) | MIC (E. coli P01495 CP.TC-R; Run 2) | MIC (E. coli R5 KAT; Escherichia coli, R5KAT) | MIC (E. coli R5 KAT; Run 2, Ec-55) | MIC (P. mirabilis A9554 CL-R; [20]) | MIC (P. mirabilis A9554 CL-R; Run 2)
100 µg/mL: MIC (P. aeruginosa GN-4925; GN4925, Run 1)

— patent publication US4051315A, “6"-Deoxykanamycin B and 6"-deoxytobramycin” (priority 1975, dated 1977)
